Counter-ions that a name gives are not always drawn.
Tested on: MTT (mouse pheochromocytoma)
Assay: IC50 of cell viability (ATP content)
Details: (24 or 48 h)
How it was run: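 Library compounds were tested at 8 final concentrations (0.5 nM to 46 µM) on MTT mouse pheochromocytoma cells for 24 or 48 hrs, with readout by CellTiter-Glo ATP luminescence. Signals were normalised with positive-control wells at 100% and DMSO wells at 0%. IC50 values were obtained by a four-parameter logistic fit.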

SMILES	IC50 of cell viability [µM]
c1cnc2cc3c(cc2n1)[C@@H]1CNC[C@@H]3C1 [Varenicline Tartrate]	> 46
Cl.O=C(CCCN1CCC(O)(c2cccc(C(F)(F)F)c2)CC1)c1ccc(F)cc1 [Trifluperidol hydrochloride]	> 46
C[C@H]1C[C@H]2[C@H]3CC\C4=C\C(=O)\C=C/[C@@]4(C)[C@@]3(Cl)[C@@H](O)C[C@]2(C)[C@]1(OC(=O)C5=CC=CO5)C(=O)CCl [Mometasone furoate]	> 46
O=C(O)Cc1ccc(-c2ccccc2)cc1 [Felbinac]	> 46
Nc1c(NC/C=C\COc2cc(CN3CCCCC3)ccn2)c(=O)c1=O [PIBUTIDINE HYDROCHLORIDE]	> 46
O=C(O)COc1ccc(C(=O)c2cccs2)c(Cl)c1Cl [Ticrynafen]	> 46
CCCC(=O)Nc1c(I)cc(I)c(C[C@H](CC)C(=O)O)c1I [TYROPANOATE SODIUM]	> 46
CCCCC/C=C\C/C=C\CCCCCCCC(=O)O [Linoleic acid]	> 46
COc1ccc(C2NC(=S)N3C(c4ccc(OC)c(OC)c4)NC(=S)N23)cc1OC (stereo not drawn)	> 46
CC(C(=O)O)c1ccc(/C=C2\CCCCC2=O)cc1 (stereo not drawn) [PELUBIPROFEN]	> 46
CC1(C)[C@@H]2CC[C@]1(C)[C@@H](OC(=O)CSC#N)C2 [isobornyl thiocyanoacetate]	> 46
Nc1c(CC(=O)[O-])cccc1C(=O)c1ccc(Br)cc1 [BROMFENAC SODIUM]	> 46
CN(C)CCCN1c2ccccc2Sc2ccc(C(F)(F)F)cc21.Cl [TRIFLUPROMAZINE HYDROCHLORIDE]	> 46
Cc1cc(O)cc(C)c1Cl [Chloroxylenol]	> 46
CC(C)NC[C@@H](O)COc1ccc(CC(N)=O)cc1 [R-(+)-ATENOLOL]	> 46
O=C(Nc1ccc(Br)cc1)c1cc(Br)cc(Br)c1O [TRIBROMSALAN]	> 46
CN1CCN(CCCN2c3ccccc3Sc3ccc([S+](=O)([O-])N(C)C)cc32)CC1.C[S+](=O)([O-])O.C[S+](=O)([O-])O [Thioproperazine dimesylate]	> 46
C[C@]12C=CC(=O)N[C@@H]1CC[C@@H]1C2CC[C@]2(C)C(C(=O)Nc3cc(C(F)(F)F)ccc3C(F)(F)F)CC[C@@H]12 (stereo partly drawn) [Dutasteride]	> 46
CCCCCCc1ccc(O)cc1O [4-Hexylresorcinol]	> 46
O=[S+]([O-])(c1ccc(Cl)cc1)c1ccc(Cl)cc1 [4,4'-Dichlorodiphenyl sulfone]	> 46
O=C1NCCN1c1ncc([N+](=O)[O-])s1 [Niridazole]	> 46

SMILES	IC50 of cell viability [µM]
Nc1ccc([S+](N)(=O)[O-])cc1 [Sulfanilamide]	> 46
CCOC(=O)O[C@@]1(CC[C@@H]2[C@@H]3CC\C4=C\C(=O)\C=C/[C@@]4(C)[C@H]3[C@H](O)C[C@@]12C)C(=O)COC(=O)CC [Prednicarbate]	> 46
CCOP(=O)(OCC)O/C(=C/Cl)c1ccc(Cl)cc1Cl [CLOFENVINFOSUM]	> 46
CO[C@H]1/C=C/O[C@@]2(C)Oc3c(C)c(O)c4c(O)c(c(/C=N\N5CCN(C6CCCC6)CC5)c(O)c4c3C2=O)NC(=O)C(C)=C/C=C/[C@H](C)[C@H](O)[C@@H](C)[C@@H](O)[C@@H](C)[C@H](OC(C)=O)[C@@H]1C [RIFAPENTINE]	> 46
O=C(O)COc1ccccc1 [Phenoxy acetic acid]	> 46
OC(CN1CCC(Cc2ccc(F)cc2)CC1)c1ccc(Cl)cc1 (stereo not drawn) [Eliprodil]	> 46
Fc1ccc(C2CCNCC2COc2ccc3c(c2)OCO3)cc1 (stereo not drawn) [Paroxetine]	> 46
COc1cc(OC)c(OC)cc1C=O [2,4,5-Trimethoxybenzaldehyde]	> 46
NC(=O)NNc1ccccc1 [Fenicarbazida]	> 46
N=C(N)n1cccn1 [PRAXADINUM]	> 46
OCCOCCN1CCN(C(c2ccccc2)c2ccc(Cl)cc2)CC1 (stereo not drawn) [Tranquizine]	> 46
COc1ccc([S+](=O)([O-])Nc2nnc(CC(C)C)s2)cc1 [GLYSOBUZOLUM]	> 46
[Cl][In]([Cl])[Cl] [Indium trichloride]	> 46
CCOC(=O)c1ccc(C#Cc2ccc3c(c2)C(C)(C)CCS3)nc1 [TAZAROTENE]	> 46
Oc1cc2cc(CCN3CCN(c4nsc5ccccc45)CC3)c(Cl)cc2[nH]1 [Zaprasidone]	> 46
CNC(=O)C[C@@H](N)C(=O)N[C@@H](C(=O)N[C@@H]1C(=O)N2[C@@H]1SC(C)(C)[C@@H]2C(=O)O)c1ccc(O)cc1 [ASPOXICILLIN]	> 46
CCN(CC)CCNC(=O)c1c(C)[nH]c(/C=C2\C(=O)Nc3ccc(F)cc32)c1C [Sunitinib malate]	> 46
CCOC(=O)CCC(=O)OC1C(OC2C(C)C(OC3CC(C)(OC)C(O)C(C)O3)C(C)C(=O)OC(CC)C(C)(O)C(O)C(C)C(=O)C(C)CC2(C)O)OC(C)CC1N(C)C (stereo not drawn) [Erythromycin ethyl succinate]	> 46
O[C@@H]1CO[C@H]2[C@@H]1OC[C@@H]2O [ISOSORBIDE]	> 46
O=C(O)CC(O)(CC(=O)O)C(=O)O [Citric acid]	> 46
C[N@+]1([O-])[C@@H]2C[C@H](OC(=O)[C@@H](CO)c3ccccc3)C[C@@H]1[C@H]1O[C@H]12 [AMINOXYSCOPOLAMINE HYDROBROMIDE]	> 46

SMILES	IC50 of cell viability [µM]
CCCCCN(C)CC[C@@](O)(P(=O)([O-])O)P(=O)(O)O [IBANDRONATE SODIUM]	> 46
CCC(C(=O)NC(N)=O)c1ccccc1 (stereo not drawn) [ETHYLPHENACEMIDE]	> 46
CC1=C(/C=C/C(C)=C/C=C/C(C)=C/CO)C(C)(C)CCC1 [Retinol]	> 46
Cc1ccc(C(=O)[C@H](C)CN2CCCCC2)cc1 [Tolperisone HCl]	> 46
Cc1cc(-n2nc3ccc(Cl)cc3n2)c(O)c(C(C)(C)C)c1 [Bumetrizole]	> 46
CC1(CN2CCC(n3c(=O)[nH]c4ccccc43)CC2)OCc2ccccc2-n2cccc21 (stereo not drawn) [ZALDARIDUM]	> 46
CCCCC[C@H](O)/C=C/[C@@H]1[C@H]2C/C(=C/CCCC(=O)[O-])O[C@H]2C[C@H]1O [EPOPROSTENOL SODIUM]	> 46
COC1=C(OC)C2=C(CC[C@@H](NC(C)=O)C/3=C/C(=O)/C(=C/C=C23)SC)C=C1O[C@@H]4O[C@@H](CO)[C@@H](O)[C@@H](O)[C@H]4O [Thiocolchicoside]	> 46
CCCN(CCC)C(=O)[C@@H](CCC(=O)O)NC(=O)c1ccccc1 [Proglumide]	> 46
CCCCC[C@H](O)/C=C\[C@@H]1[C@H](O)CC(=O)[C@@H]1CCCCCCC(=O)O [Alprostadil]	> 46
CCSc1ccc2c(c1)N(CCCN1CCN(C)CC1)c1ccccc1S2.O=C(O)C[C@@H](O)C(=O)O.O=C(O)C[C@@H](O)C(=O)O [Thiethylperazine malate]	> 46
OC(CN1CCCCC1)c1cc(-c2ccccc2)on1 (stereo not drawn)	> 46
N[C@H](CC(=O)O)C(=O)O [D-ASPARTIC ACID]	> 46
CC[C@H]1OC(=O)C[C@@H](O)[C@H](C)[C@@H](O[C@@H]2O[C@H](C)C[C@H](N(C)C)[C@@H]2O)[C@@H](CC=O)C[C@@H](C)C(=O)/C=C\[C@]2(C)O[C@H]2[C@@H]1C [Rosaramicin]	> 46
CCC(=O)Oc1ccc2c(c1)CCC1C2CC[C@]2(C)C(OC(=O)CC)CCC12 (stereo partly drawn)	> 46
C[C@H]1OC(OC2C(O)[C@@H](O)C(OC3C(O)[C@@H](O)C(O)O[C@@H]3CO)O[C@@H]2CO)[C@H](O)C(O)C1N[C@H]1C=C(CO)[C@@H](O)[C@H](O)C1O (stereo partly drawn) [Acarbose]	> 46
COc1ccc([S+](=O)([O-])Nc2nnc(CC(C)C)s2)cc1 [Glisobuzol]	> 46
CCC1OC(=O)CC(O)C(C)[C@@H](O[C@@H]2OC(C)[C@H](O[C@@H]3C[C@@](C)(O)C(O)C(C)O3)C(N(C)C)C2O)[C@H](CC=O)CC(C)C(=O)/C=C/C(C)=C/[C@@H]1COC1OC(C)C(O)C(OC)[C@@H]1OC (stereo partly drawn) [TYLOSIN TARTRATE]	> 46
CC(O)COc1ccccc1 (stereo not drawn) [2-Propanol, 1-phenoxy-]	> 46
O=C(OC[C@@H](O)CO)c1ccccc1Nc1ccnc2cc(Cl)ccc12 [Glafenine hydrochloride]	> 46
CC[C@H](O)C(C[C@H](C)N(C)C)(c1ccccc1)c1ccccc1	> 46
